Measured values as given in article PMC7617456, “Cryptosporidium lysyl-tRNA synthetase inhibitors define the interplay between solubility and permeability required to achieve efficacy” (Science translational medicine, 2024).
Entries after “also recorded” stand apart in the source; their conditions may differ.

Legend:
[1] = Liver microsomal intrinsic clearance, bovine; type: in vitro ADME; conditions: bovine liver microsomes
wild type C. parvum = test: NOD SCID Gamma mouse efficacy model; type: in vivo; conditions: for parasite shedding once treatment finished (day 14 PI) / recrudescence (day 21 PI): 10 mg/kg BID oral 7 days; for log reduction in parasite shedding / parasite reduction: 10 mg/kg twice a day oral 7 days; for minimum efficacious dose (MED): BID oral 7 days, reduces parasite burden and prevents recrudescence
Method: An immunocompromised mouse model of cryptosporidiosis (Fig. 1C) was selected to examine the effect of each of the fourteen tool compounds on parasite reduction in vivo. […] Treatment started on day 7 post infection (PI) and concluded on day 13 PI. Infection was determined by measuring the number of parasites shed in the fecal material by quantitative PCR (oocysts/g). Efficacy was determined by calculating the log reduction in the number of oocysts shed by treated animals after completion of compound dosing (day 14) relative to the initial parasite burden in the same group of animals before treatment began (day 7 PI). Hypothesized compound absorption by BCS class is illustrated in Fig. S3. […] No Class I or Class IV compound achieved a log reduction above 2.0 (99% parasite reduction).
Efficacy of tool compounds in the NOD SCID Gamma mouse model was assessed as previously described.([14]) Male mice aged 3-5 weeks old were used, 4 mice per group (NOD.Cg-Prkdc^scid Il2rgtm1Wjl/SzJ; purchased from Jackson Labs). Mice were infected via gavage (100,000 wild type Iowa strain C. parvum oocysts from Bunchgrass Farms). Compounds were prepared fresh daily in HPMC with DMSO (0.5% hydroxypropylmethylcellulose, 0.4% Tween 80 and 0.5% Benzyl alcohol (v/v) plus 5% DMSO) and were administered by oral gavage at the concentration indicated starting 7 days post infection. Paromomycin served as the positive control (administered at 2000 mg/kg). Fecal samples were collected on days indicated. Oocyst shedding in feces was measured using a previously validated qPCR assay.([28])

Mouse pharmacokinetics = conditions: for AUC / Vd / half-life / Cmax / Tmax / bioavailability: female, BALB/C, whole blood; for AUC / Vd / half-life / Cmax / Tmax / bioavailability / Clb: mouse; for CLB: mouse IV 3 mg/kg, clearance in blood; for Clb: percent of liver blood flow; for mean free (unbound) drug concentration relative to EC90: uninfected mice, 10 mg/kg oral single dose
Method: Uninfected mice were administered a single oral (10 mg/kg) dose of either DDD489 or DDD508 using the same formulation and dose concentration as for the efficacy study. Blood samples were collected at various time points after drug administration (15, 30, 60, 120, 180, 240, and 480 minutes) and analyzed to produce a concentration-time plot of unbound drug concentration (Fig. 3). […]
Mouse pharmacokinetics (Dundee)
As previously described.(27)
Test compound was dosed as a bolus solution intravenously (IV) at 3mg/kg (dose volume: 5 mL/kg; dose vehicle: 10% DMSO; 40% PEG 400; 50% Milli-Q water) or dosed orally (PO) by gavage as a suspension at 10mg/kg (dose volume: 10 mL/kg; dose vehicle: 1% CMC to female BALB/C mice (n = 3/dose route). Blood samples were taken from each mouse at 5, 15, 30 min, 1, 2, 4, 6, 8 h mixed with nine volumes of Milli-Q water and stored frozen until UPLC/MS/MS analysis. Pharmacokinetic parameters were derived from the blood concentration-time curve using PK solutions software v2.0 (Summit Research Services, USA).

HsKRS = molecular target: T1, HsKRS (Homo sapiens, UniProt Q15046); test: HsKRS in vitro enzyme assay; type: biochemical; conditions: mean (95% confidence interval)
T1 construct: made in house
T1 sequence (Q15046 whole entry): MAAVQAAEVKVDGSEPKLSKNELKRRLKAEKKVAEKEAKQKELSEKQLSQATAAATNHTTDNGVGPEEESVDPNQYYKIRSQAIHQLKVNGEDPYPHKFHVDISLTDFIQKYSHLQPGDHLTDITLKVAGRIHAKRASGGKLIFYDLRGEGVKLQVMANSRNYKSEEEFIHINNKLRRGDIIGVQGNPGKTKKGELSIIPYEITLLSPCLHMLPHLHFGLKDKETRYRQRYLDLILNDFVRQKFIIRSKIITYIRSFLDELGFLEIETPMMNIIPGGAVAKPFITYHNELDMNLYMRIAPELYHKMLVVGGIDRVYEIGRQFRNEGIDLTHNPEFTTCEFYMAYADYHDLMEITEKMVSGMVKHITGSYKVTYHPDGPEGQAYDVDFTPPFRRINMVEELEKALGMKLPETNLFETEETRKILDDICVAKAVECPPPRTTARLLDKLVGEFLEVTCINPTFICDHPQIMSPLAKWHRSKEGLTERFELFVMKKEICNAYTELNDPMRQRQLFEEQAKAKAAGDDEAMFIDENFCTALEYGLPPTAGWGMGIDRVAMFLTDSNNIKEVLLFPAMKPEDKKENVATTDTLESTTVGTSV

HepG2 = HepG2 in vitro cytotoxicity; type: cell-based, human; conditions: for EC50: Homo sapiens, HepG2, cytotoxicity; for Cellular selectivity: ratio of mean HepG2/C. parvum EC50
[2] = system: Salmonella typhimurium (TA98, TA100, TA1535, and TA97a) and Escherichia coli WP2 uvrA; test: Mini-Ames; type: cell-based; conditions: presence and absence of S9 mix

Row | Structure (SMILES) | Mics CLi (b) [1] | parasite shedding once treatment finished (day 14 PI) (wild type C. parvum) | recrudescence (day 21 PI) (wild type C. parvum) | log reduction in parasite shedding (wild type C. parvum) | parasite reduction (wild type C. parvum) | minimum efficacious dose (MED) (wild type C. parvum) | AUC (Mouse pharmacokinetics; iv, 3 mg/kg) | Vd (Mouse pharmacokinetics; iv, 3 mg/kg) | half-life (Mouse pharmacokinetics; iv, 3 mg/kg) | AUC (Mouse pharmacokinetics; po, 10 mg/kg) | Cmax (Mouse pharmacokinetics; po, 10 mg/kg) | Tmax (Mouse pharmacokinetics; po, 10 mg/kg) | bioavailability (Mouse pharmacokinetics; po, 10 mg/kg) | CLB (Mouse pharmacokinetics) | Clb (Mouse pharmacokinetics) | mean free (unbound) drug concentration relative to EC90 (Mouse pharmacokinetics) | IC50 (HsKRS) | EC50 (HepG2) | Cellular selectivity (HepG2) | Mini-Ames (4 strains ± S9) [2] | also measured
1 | Nc1nc2c(c(C(F)(F)F)n1)C(=O)N(CC1CCCC(C(F)(F)F)C1)C2 (centres unmarked) [DDD489] | 25 mL/min/g | reduces parasite shedding to the level of detection | unable to prevent recrudescence; also recorded: does not prevent recrudescence | > 2.8 log | > 99.8% | 30 mg/kg | 2.28 µg·h/mL | 2.8 L/kg | 90 min | 0.517 µg·h/mL | 0.2 µg/mL | 60 min | 7% | 1.32 L/h/kg | 17 % LBF | remained below the EC90 | 22 µM | 18 µM | 450 fold | Negative | recrudescence at day 21 PI (wild type C. parvum; 50 mg/kg BID oral 7 days): prevents
2 | O=C(NCC1(O)CCCCC1)c1cc(=O)c2cc(O)ccc2o1 [DDD508] | < 0.5 mL/min/g | parasite shedding to the level of detection | unable to prevent recrudescence | > 2.8 log | > 99.8% | 30 mg/kg | 1.48 µg·h/mL | 1.8 L/kg | 36 min | 0.267 µg·h/mL | 0.2 µg/mL | 15 min | 6% | 2.04 L/h/kg | 27 % LBF | remained below the EC90 | 10 µM | 18 µM | 140 fold | Negative | –
